Laboratory results: US20050042751A1, “Generation and use of new types of dendritic cells” (priority 2001, published 2005)

Columns and labels:
Assay type in all cases: cell-based, human
[1] = system: monocyte-derived DC; test: Phenotypic changes of DC upon coculture with γδ T cells (flow cytometry)
Method: DC cultures were cultured for 24 alone, in the presence of BrHpp (200 nM) only, or with γδ T cells activated by BrHpp as described in example 1. Neutralizing anti-TNF or anti-IFNγ Ab was added at a concentration of 20 and 15 μg/ml, respectively. The expression of HLA-DR, CD86, and CD83 on DC was measured by flow cytometry and expressed as means+/−SEM of mean fluorescence intensity in five independent experiments on different healty donors. • ^1 p<0.05 compared to DC cultured alone or with BrHpp only. • ^2 p<0.05 compared to DC cultured with activated γδ T cells in absence of mAb.
Purification of γδ T cells and DC generation. Peripheral blood mononuclear cells (PBMC) from healthy volunteers were isolated by density centrifugation of heparinized blood on Lymphoprep (Nycomed, Oslo, Norway), washed with HBSS, resuspended in culture medium and allowed to adhere In culture flasks for 2 h at 37° C. Non-adherent cells were removed and adherent monocytes were cultured during 6 days in presence of 500 U/ml granulocyte macrophage colony-stimulating factor (GM-CSF) (Leucomax, Schering-Plough Kenilworth, N.J.) and 800 U/ml of IL-4 (Cellgenix, Freiburg, Germany). The resulting cell preparation routinely contained >90% DC as assessed by morphology and FACS analysis.
(§1) Cell culture conditions. γδ T cells (7.5 10^5 cells/500 μl) were cultured for 24 h in flat-bottomed 24-well plates in culture medium supplemented or not with BrHpp (200 nM). Autologous DC (10^6 cells/500 μl) were added to γδ T cell cultures for another 24 h and analyzed for the expression of surface markers and for their ability to release cytokines. In parallel, DC (10^6 cells/ml) were cultured for 24 h in 24-well plates either in medium alone, or in presence of BrHpp (100 nM). In some experiments, anti-TNF-α (20 μg/ml) or anti-IFN-γ (15 μg/ml) neutralizing monoclonal antibody (mAb) or their isotypic control used at similar concentration (Biosource Fleurus, Belgium) were added to DC-γδ T cell cocultures. In parallel, DC and γδ T cells were cocultured in a transwell culture system (Costar, Belgium).
Immunophenotyping by flow cytometry. Monocyte-derived DC were stained using PE-labeled specific mAb HLA-DR, CD86, CD83 (Beckton-Dickinson, Mountain view, CA). FITC-conjugated anti-TCR γδ mAb (Becton-Dickinson, San Jose, Calif.) was used to assess γδ T cell purity and to exclude them in flow cytometry analysis of DC in DC-γδ T cell cocultures. Briefly, 5×10^5 cells were incubated with the relevant mAbs or their isotype-matched controls for 20 min at 4° C., washed and fluorescence intensity was analyzed using a FACS-Calibur (Becton-Dickinson).

[2] = system: γδ T cells; test: TNF-α and IFN-γ production by γδ T cells (ELISA)
Method: γδ T cells (7.5 10^5 cells/500 μl) were either cultured in medium alone or stimulated with BrHpp (200 nM). After 48 h, culture supernatants were assayed by ELISA for TNF-α and IFN-γ levels.
For γδ T cell isolation, cells expressing γ-δ receptors on their membrane were positively selected using immunomagnetic depletion (Miltenyi Sanvertech, Belgium). Briefly, non-adherent PBMC containing 2 to 5% of γδ T cells were incubated with biotin-conjugated anti-γδ T cell receptor (TCR) antibodies for 15 min at 4° C., washed three times, and then incubated with immunomagnetic beads coated with streptavidin.
as §1, with “In some experiments, anti-TNF-α (20 μg/ml) or anti-IFN-γ (15 μg/ml) neutralizing monoclonal antibody (mAb) or their isotypic control used at similar concentration (Biosource Fleurus, Belgium) were added to DC-γδ T cell cocultures.” left out
(§2) Determination of cytokine levels. TNF-α, IL-12 p-40 and IFN-γ levels in culture supernatants were determined by ELISA kits from Biosource. IL-12 p70 levels were measured using the Endogen Elisa kit (Endogen, Belgium).

[3] = system: monocyte-derived DC; test: IL-12 production by DC in DC-γδ T cell cocultures (ELISA)
Method: FIG. 3: γδ T cells induce IL-12 production by DC. Monocyte-derived DC were cocultured alone or in the presence of BrHpp only or cocultured with unstimulated or BrHpp-activated γδ T in absence or presence of either anti-TNF-α, anti-IFN-γ neutralizing mAbs or both. After 24 h of culture, supernatants were assayed for IL12-p40 and p70 levels by ELISA. Results were expressed as mean±SEM of 6 independent experiments. • * p<0.05 compared to DC cultured in medium alone or containing BrHpp • ** p<0.05 compared to DC stimulated with BrHPP-activated γδ T cells in the absence of mAb.
as §1, §2

[4] = DC cultured 24 h with BrHpp (200 nM) only, mean+/-SEM, 5 experiments
[5] = γδ T cells 7.5 10^5 cells/500 μl, BrHpp 200 nM, 48 h, culture supernatant, mean±SEM of 13 experiments

CC(O)(CBr)CCOP(=O)(O)OP(=O)(O)O (centres unmarked) [BrHpp, bromohydrin pyrophosphate]
CD83 expression on DC (mean fluorescence intensity) [1, 4]: 69 +/− 14 | CD86 expression on DC (mean fluorescence intensity) [1, 4]: 308 +/− 205 | HLA DR expression on DC (mean fluorescence intensity) [1, 4]: 610 +/− 354 | effect of preactivation of γδT cells on upregulation of HLA-DR, CD86 and CD83 on DC ([1]; γδT cells preactivated with BrHpp versus not preactivated): did not result in a further increase | effect on IFN-γ secretion by γδ T cells ([2]; text statement on table 1): induced | effect on basal production of TNF-α by γδ T cells ([2]; text statement on table 1): further increased | IFN-γ [2, 5]: 452 ± 76^1 pg/ml | TNF-α [2, 5]: 17406 ± 1290^1 pg/ml | effect on IL-12 production by DC ([3]; DC cultured in absence of γδ T cells): no effect | induction of IL-12 (p70) synthesis ([3]; DC-γδ T cell coculture in the presence of BrHpp): detected | increase in IL-12 (p40) levels ([3]; DC-γδ T cell coculture in the presence of BrHpp versus without BrHpp): 3 fold
